Reference: patent US10035790B2, “RORγ modulators” (BRISTOL-MYERS SQUIBB COMPANY, priority 2012, dated 2018)

Molecular target: T1, ligand binding domain of human RORγ (A262-S507) (Homo sapiens, UniProt P51449)
T1 construct: made in house; host or cells: E. coli
T1 sequence (P51449 262-507): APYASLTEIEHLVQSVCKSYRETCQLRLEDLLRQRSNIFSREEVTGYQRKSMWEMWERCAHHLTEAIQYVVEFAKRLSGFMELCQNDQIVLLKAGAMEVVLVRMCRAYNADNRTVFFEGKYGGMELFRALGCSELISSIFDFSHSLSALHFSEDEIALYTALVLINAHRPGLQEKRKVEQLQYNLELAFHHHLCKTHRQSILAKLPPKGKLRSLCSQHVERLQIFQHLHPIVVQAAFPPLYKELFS
Test: General RORγ SPA binding assay (competition with [3H]25-hydroxycholesterol)
Settings: RORγ SPA binding assay, inhibition of [3H]25-hydroxycholesterol binding; read-out: IC50
Protocol: Example 2 General RORγ SPA Binding Assay
The binding of potential ligands to RORγ is measured by competition with [^3H]25-hydroxycholesterol using a scintillation proximity assay (SPA) binding assay. The ligand binding domain of human RORγ (A262-S507) with an N-terminal His tag is expressed in E. coli and purified using nickel affinity chromotography. 50 nM RORγ (A262-S507) is incubated with test compound at varying concentrations for 15 min at room temperature in PBS buffer containing 0.5% fatty acid free BSA. […] of [^3H]25-hydroxycholesterol is then added, and the reaction is incubated for 15 min. 4 mg/mL of Ysi Copper HIS-TAG SPA Beads (Perkin Elmer) are added, and the mixture is incubated for 30 min. The reaction is read on a MicroBeta Trilux scintillation plate reader (Perkin Elmer). IC50 values are determined from the percentage inhibition of [^3H]25-hydroxycholesterol binding.

In order of rising IC50:
1. Cc1ncc(C(=O)NCc2cc(F)cc(Cl)c2)c(C2CCN(C(=O)Cc3c(F)cccc3F)CC2)n1 [Compound A41, N-(3-chloro-5-fluorobenzyl)-4-(1-(2-(2,6-difluorophenyl)acetyl)piperidin-4-yl)-2-methylpyrimidine-5-carboxamide]  4.8 nM
2. Cc1ncc(C(=O)NCc2cc(Cl)ccc2F)c(C2CCN(C(=O)Cc3c(F)cccc3F)CC2)n1 [Compound A42, N-(5-chloro-2-fluorobenzyl)-4-(1-(2-(2,6-difluorophenyl)acetyl)piperidin-4-yl)-2-methylpyrimidine-5-carboxamide]  5.1 nM
3. Cc1cc(C)cc(CNC(=O)c2cnc(C3CC3)nc2C2CCN(C(=O)Cc3c(F)cccc3F)CC2)c1 [Compound A43, 2-cyclopropyl-4-(1-(2-(2,6-difluorophenyl)acetyl)piperidin-4-yl)-N-(3,5-dimethylbenzyl)pyrimidine-5-carboxamide]  5.4 nM
4. Cc1ncc(C(=O)NCc2cccc(C(F)(F)F)n2)c(C2CCN(C(=O)Cc3c(F)cccc3F)CC2)n1 [Compound A44, 4-(1-(2-(2,6-difluorophenyl)acetyl)piperidin-4-yl)-2-methyl-N-((6-(trifluoromethyl)pyridin-2-yl)methyl)pyrimidine-5-carboxamide]  5.7 nM
5. Cc1ncc(C(=O)NCc2cccc(Cl)c2)c(C2CCN(C(=O)Cc3c(F)cccc3F)CC2)n1 [Compound A40, N-(3-chlorobenzyl)-4-(1-(2-(2,6-difluorophenyl)acetyl)piperidin-4-yl)-2-methylpyrimidine-5-carboxamide]  5.8 nM
6. O=C(NCc1cccc(Cl)c1)c1cnc(C2CC2)nc1C1CCN(C(=O)Cc2c(F)cccc2F)CC1 [Compound A45, N-(3-chlorobenzyl)-2-cyclopropyl-4-(1-(2-(2,6-difluorophenyl)acetyl)piperidin-4-yl)pyrimidine-5-carboxamide]  6 nM
7. Cc1ncc(C(=O)NCc2cccc(C(F)(F)F)c2)c(C2CCN(C(=O)Cc3c(F)cccc3F)CC2)n1 [Compound A46, 4-(1-(2-(2,6-difluorophenyl)acetyl)piperidin-4-yl)-2-methyl-N-(3-(trifluoromethyl)benzyl)pyrimidine-5-carboxamide]  6.1 nM
8. Cc1ncc(C(=O)NCc2ccnc(C(F)(F)F)c2)c(C2CCN(C(=O)Cc3c(F)cccc3F)CC2)n1 [Compound A47, 4-(1-(2-(2,6-difluorophenyl)acetyl)piperidin-4-yl)-2-methyl-N-((2-(triflnoromethyl)pyridin-4-yl)methyl)pyrimidine-5-carboxamide]  6.3 nM
9. CCc1ncc(C(=O)NCc2cccc(Cl)c2)c(C2CCN(C(=O)Cc3c(F)cccc3F)CC2)n1 [Compound A48, N-(3-chlorobenzyl)-4-(1-(2-(2,6-difluorophenyl)acetyl)piperidin-4-yl)-2-ethylpyrimidine-5-carboxamide]  6.7 nM
10. Cc1ncc(C(=O)NCc2cc(Cl)nc(Cl)c2)c(C2CCN(C(=O)Cc3c(F)cccc3F)CC2)n1 [Compound A49, N-((2,6-dichloropyridin-4-yl)methyl)-4-(1-(2-(2,6-difluorophenyl)acetyl)piperidin-4-yl)-2-methylpyrimidine-5-carboxamide]  6.8 nM
11. Cc1ncc(C(=O)NCc2cccc(C#N)c2)c(C2CCN(C(=O)Cc3c(F)cccc3F)CC2)n1 [Compound A50, N-(3-cyanobenzyl)-4-(1-(2-(2,6-difluorophenyl)acetyl)piperidin-4-yl)-2-methylpyrimidine-5-carboxamide]  7.1 nM
12. Cc1ncc(C(=O)NCc2cc(Cl)cc(Cl)c2)c(C2CCN(C(=O)Cc3c(F)cccc3F)CC2)n1 [Compound A51, N-(3,5-dichlorobenzyl)-4-(1-(2-(2,6-difluorophonyl)acetyl)piperidin-4-yl)-2-methylpyrimidine-5-carboxamide]  7.2 nM
13. COc1cc(CNC(=O)c2cnc(C)nc2C2CCN(C(=O)Cc3c(F)cccc3F)CC2)cc(Cl)n1 [Compound A52, N-((2-chloro-6-methoxypyridin-4-yl)methyl)-4-(1-(2-(2,6-difluorophenyl)acetyl)piperidin-4-yl)-2-methylpyrimidine-5-carboxamide]  7.5 nM
14. Cc1ncc(C(=O)NCc2cccc(OC(F)(F)F)c2)c(C2CCN(C(=O)Cc3c(F)cccc3F)CC2)n1 [Compound A53, 4-(1-(2-(2,6-difluorophenyl)acetyl)piperidin-4-yl)-2-methyl-N-(3-(trifluoromethoxy)benzyl)pyrimidine-5-carboxamide]  8.1 nM
15. Cc1ncc(C(=O)NCc2cccc(Cl)c2F)c(C2CCN(C(=O)Cc3c(F)cccc3F)CC2)n1 [Compound A54, N-(3-chloro-2-fluorobenzyl)-4-(1-(2-(2,6-ditluorophenyl)acetyl)piperidin-4-yl)-2-methylpyrimidine-5-carboxamide]  13.9 nM
16. Cc1ncc(C(=O)NCc2ccnc(C#N)c2)c(C2CCN(C(=O)Cc3c(F)cccc3F)CC2)n1 [Compound A55, N-((2-cyanopyridin-4-yl)methyl)-4-(1-(2-(2,6-difluorophenyl)acetyl)piperidin-4-yl)-2-methylpyrimidine-5-carboxamide]  19.2 nM
17. Cc1ncc(C(=O)NCc2ccnc(Cl)c2)c(C2CCN(C(=O)Cc3c(F)cccc3F)CC2)n1 [Compound A56, N-((2-chloropyridin-4-yl)methyl)-4-(1-(2-(2,6-difluorophenyl)acetyl)piperidin-4-yl)-2-methylpyrimidine-5-carboxamide]  19.3 nM
18. Cc1cc(C)cc(CNC(=O)c2cnc(C)nc2C2CCN(C(=O)Cc3cc(F)cc(F)c3)CC2)c1 [Compound A27, 4-(1-(2-(3,5-difluorophenyl)acetyl)piperidin-4-yl)-N-(3,5-dimethylbenzyl)-2-methylpyrimidine-5-carboxamide]  720 nM
19. CC(C)c1ncc(C(=O)NCc2ccc(Cl)c(Cl)c2)c(C2CCN(C(=O)Cc3c(F)cccc3F)CC2)n1 [Compound A28, N-(3,4-dichlorobenzyl)-4-(1-(2-(2,6-difluorophenyl)acetyl)piperidin-4-yl)-2-isopropylpyrimidine-5-carboxamide]  1030 nM
20. Cc1cc(C)cc(CNC(=O)c2cnc(C)nc2C2CCN(C(=O)Cc3ccc(F)cc3)CC2)c1 [Compound A29, N-(3,5-dimethylbenzyl)-4-(1-(2-(4-fluorophenyl)acetyl)piperidin-4-yl)-2-methylpyrimidine-5-carboxamide]  1090 nM
21. Cc1cc(C)cc(CNC(=O)c2cnc(C)nc2C2CCN(C(=O)Cc3cccc(C)c3)CC2)c1 [Compound A30, N-(3,5-dimethylbenzyl)-2-methyl-4-(1-(2-(m-tolyl)acetyl)piperidin-4-yl) pyrimidine-5-carboxamide]  1450 nM
22. Cc1cc(C)cc(CNC(=O)c2cnc(C)nc2C2CCN(C(=O)C3(c4ccccc4F)CCCC3)CC2)c1 [Compound A31]  1630 nM
23. Cc1cc(C)cc(CNC(=O)c2cnc(C)nc2C2CCN(C(=O)C3(c4ccccc4)CC3)CC2)c1 [Compound A32, N-(3,5-dimethylbenzyl)-2-methyl-4-(1-(1-phenylcyclopropanecarbonyl)piperidin-4-yl)pyrimidine-5-carboxamide]  1690 nM
24. Cc1cc(C)cc(CNC(=O)c2cnc(C)nc2C2CCN(C(=O)c3ncccc3Cl)CC2)c1 [Compound A33, 4-(1-(3-chloropicolinoyl)piperidin-4-yl)-N-(3,5-dimethylbenzyl)-2-methylpyrimidine-5-carboxamide]  1950 nM
25. Cc1cc(C)cc(CNC(=O)c2cnc(C)nc2C2CCN(C(=O)Cc3ccc(F)c(F)c3)CC2)c1 [Compound A34, 4-(1-(2-(3,4-difluorophenyl)acetyl)piperidin-4-yl)-N-(3,5-dimethylbenzyl)-2-methylpyrimidine-5-carboxamide]  2690 nM
26. Cc1cc(C)cc(CNC(=O)c2cnc(C)nc2C2CCN(C(=O)C(C)(C)c3ccccc3)CC2)c1 [Compound A35, N-(3,5-dimethylbenzyl)-2-methyl-4-(1-(2-methyl-2-phenylpropanoyl)piperidin-4-yl)pyrimidine-5-carboxamide]  2970 nM
27. CC(C)c1ncc(C(=O)NCc2ccc(Cl)c(Cl)c2)c(C2CCN(C(=O)Cc3ccccc3F)CC2)n1 [Compound A36, N-(3,4-dichlorobenzyl)-4-(1-(2-(2-fluorophenyl)acetyl)piperidin-4-yl)-2-isopropylpyrimidine-5-carboxamide]  3330 nM
28. O=C(NCc1ccc(Cl)c(Cl)c1)c1cnc(-c2ccccc2)nc1C1CCN(C(=O)Cc2c(F)cccc2F)CC1 [Compound A37, N-(3,4-dichlorobenzyl)-4-(1-(2-(2,6-difluorophenyl)acetyl)piperidin-4-yl)-2-phenylpyrimidine-5-carboxamide]  4200 nM
29. Cc1cc(C)cc(CNC(=O)c2cnc(C)nc2C2CCN(C(=O)Cc3ccccn3)CC2)c1 [Compound A38, N-(3,5-dimethylbenzyl)-2-methyl-4-(1-(2-(pyridin-2-yl)acetyl)piperidin-4-yl)pyrimidine-5-carboxamide]  5310 nM
30. COc1cccc(CC(=O)N2CCC(c3nc(C)ncc3C(=O)NCc3cc(C)cc(C)c3)CC2)c1 [Compound A39, N-(3,5-dimethylbenzyl)-4-(1-(2-(3-methoxyphenyl)acetyl)piperidin-4-yl)-2-methylpyrimidine-5-carboxamide]  5450 nM
